Experiments:
[1] = system: immortalized human sebocytes in culture, derived from the SZ95 line; experiment: Proliferation tests (MUH) and cell viability tests (LDH) run in parallel; type: cell-based
Text: In parallel, proliferation tests (MUH) and cell viability tests (LDH) make it possible to check that the, effects obtained are not associated with an appreciable change in these biological parameters.

[2] = system: immortalized human sebocytes in culture, derived from the SZ95 line; experiment: Lipogenesis test: lipid content of sebocytes in culture by Nile red fluorescence; type: cell-based; settings: for LIPID VARIATION (relative to the control): treatment for 2 days, neutral lipids, Nile red
Procedure: The activity of the compounds (2c) and (1e) described above was tested on a model of immortalized human sebocytes in culture, derived from the SZ95 line described in Zouboulis, C. C., Seltmann, H., Neitzel, H. & Orfanos, C. E., Establishment and Characterization of an Immortalized Human Sebaceous Gland Cell Line, J. Invest. Dermatol., 113, 1011–1020 (1999).
The test consisted in measuring the amount of lipids produced by the sebocytes of the line (at confluence), in the presence or absence of an active agent, diluted in DMSO, such that the final amount of DMSO in the culture medium is 0.1%. After treatment for 2 days, the adherent cells are treated with Nile red (1 μg/ml). The lipid content is then quantified by measuring the fluorescence of the dye (excitation/emission couple: 485–540 nm for the neutral lipids).
The tests are performed in sextuplicate and the experiment is repeated four times.

Row | SMILES | Proliferation/cytotoxicity ([1]; concentration 10^−6 M) | LIPID VARIATION (relative to the control) ([2]; concentration 10^−6 M) | increase in the lipid content of the sebum ([2]; concentration 10^−5 M, same test) [%] | Proliferation/cytotoxicity ([1]; concentration 10^−4 M) | LIPID VARIATION (relative to the control) ([2]; concentration 10^−4 M)
1 | COc1ccc(N2C(=O)c3c(OC)cccc3S2(=O)=O)cc1 [(2c), 4-methoxy-2-(4-methoxyphenyl)-1,2-benzisothiazol-3(2H)-one 1,1-dioxide] | no | +43% |  |  | 
2 | C[C@]12CC[C@H](O)CC1=CC[C@@H]1[C@@H]2CC[C@]2(C)C(=O)CC[C@@H]12 [DHEA, reference compound] |  |  | 13 |  | 
3 | O=C1c2c(O)cccc2S(=O)(=O)N1c1ccccc1 [(1e), 4-hydroxy-2-phenyl-1,2-benzisothiazol-3(2H)-one 1,1-dioxide] | no | +16% |  | no | +39%

Source: US7232839B2, “Benzoisothiazolone compositions” (L'Oreal, priority 2004, dated 2007)
